Results on five molecules are retold here after US6184209A, “Diabetes treatment” (Alizyme Therapeutics Limited, priority 1996, dated 2001).

Where a SMILES comes first, the peptide text is derived from it.

One assay relates to dopamine-depleted rats. To be noted: rat, in vivo; cited from earlier work.
A further assay relates to urodele limb. To be noted: in vivo; cited from earlier work.
The test system of a further assay is EDL muscles--female mice. Briefly: 2-deoxy-D-[1-3H]glucose uptake into EDL muscles, female mice. In kind it is cell-based. The settings on record: 10^-7 M; for increase in the uptake of 2-deoxy-D-glucose into the muscles (%): normal female mice. Here is the method: (§1) Isolated soleus, EDL (extensor digitorum longus) or diaphragm muscles of normal male and female mice were incubated for 30 min at 37° C. in oxygenated Krebs buffer containing 2-deoxy-D-[1-^3 H]glucose. 2-Deoxy-D-glucose is a derivative of D-glucose which is taken up into muscle by carrier-mediated transport and which accumulates in muscle as 2-deoxy-D-glucose-6-phosphate without further metabolism. The tritiated derivative can therefore be used to determine the uptake into muscle of D-glucose (which itself is metabolised). A COOH-terminal (C-terminal) fragment of β-endorphin and an analogue of a β-endorphin fragment were added to the Krebs buffer. These were the C-terminal dipeptide (glycyl-L-glutamine or glycyl-L-glutamic acid) and CH3 CO-Lys-D-Lys-Sar-Glu, a stable analogue of the C-terminal tetrapeptide of β-endorphin. Pyruvate (2 mM) and 2% bovine serum albumen were also present in the bathing medium surrounding the muscles. The extracellular space in the muscles was determined by including L-[1-^14 C] glucose, which is not transported into muscle via the D-glucose membrane carrier.
(§2) At the end of the incubation period, the tissue samples were digested in 1 M NaOH at 90° C. and the radioactivity counted by liquid scintillation counting.
d) EDL muscles--female mice
Following the procedure outlined in Example 1, it was shown that Gly-Gin in a concentration of 10^-7 M caused a 180% increase in 2-deoxy-D-glucoseuptake in EDL muscles of normal female mice, whilst with Gly-Glu there was an 80% increase.

Assay [1] deals with subjects with non-insulin dependent diabetes mellitus (type II). To be noted: type II diabetics, cited from earlier work.
The subject of assay [2] is Isolated soleus muscles--male mice. Briefly: 2-deoxy-D-[1-3H]glucose uptake into isolated soleus muscles, male mice. In kind it is cell-based. To be noted: 10^-9 M. Here is the method: as §1, §2
a) Isolated soleus muscles--male mice

Assay [3] relates to Isolated soleus muscles--female mice. Briefly: 2-deoxy-D-[1-3H]glucose uptake into isolated soleus muscles, female mice. In kind it is cell-based. The settings on record: 10^-8 M. Here is the method: as §1, §2
b) Isolated soleus muscles--female mice

A further assay concerns EDL muscles--male mice. Put plainly: 2-deoxy-D-[1-3H]glucose uptake into EDL muscles, male mice. Type of assay: cell-based. To be noted: 10^-9 M. Here is the method: as §1, §2
c) EDL muscles--male mice

Assay [4] has as its system Diaphragm muscles--female mice. Put plainly: 2-deoxy-D-[1-3H]glucose uptake into diaphragm muscles, female mice. In kind it is cell-based. To be noted: 10^-8 M. Here is the method: as §1, §2
e) Diaphragm muscles--female mice

Where [5] appears, read: 2.5 mg by intravenous bolus injection.

For the molecule “Lys-Lys-Gly-Glu (KKGE; printed: Lys-Lys-Gly-Glu) [MPF]”, the “turning response of dopamine-depleted rats to D-amphetamine” value in the assay with dopamine-depleted rats is recorded as “significant reductions”. For the same molecule, in the assay with urodele limb, the urodele limb regeneration entry is recorded as “promoting”.
On to `NCC(=O)N[C@@H](CCC(=O)O)C(=O)O` [Gly-Glu, glycyl-L-glutamic acid] (H-Gly-Glu-OH), for which the “increase in the uptake of 2-deoxy-D-glucose into the muscles (%)” value (shortened to “increase in the uptake … (%)”) in the assay with EDL muscles--female mice is 80%.
Take “β-endorphin (YGGFMTSEKSQTPLVTLFKNAIIKNAYKKGE; Beta-endorphin; UniProt P01189 237-267, looked up) [human β-endorphin]”: in assay [1] (setting [5]), the “duration of increments in plasma insulin and glucagon” value was “up to 90 minutes”; the “plasma concentrations of insulin and glucagon” value was “prompt and simultaneous increments”. The “progressive decline in plasma glucose: effect of administration” value in assay [1] (administration one hour after start of three hour study period) was “substantially unaffected”.
`NCC(=O)N[C@@H](CCC(N)=O)C(=O)O` [Gly-Gin, glycyl-L-glutamine] (H-Gly-Gln-OH): the “increase in the uptake … (%)” value in the assay on EDL muscles--female mice came out at 180%.
As for insulin, the “increase in the uptake … (%)” value in assay [2] was 500%; in assay [3], around 100%; in the assay on EDL muscles--male mice, 150%; in the assay on EDL muscles--female mice it was 250%. Further, the “increase in the uptake of 2-deoxy-D-glucose into the muscles (fold)” value is on record as 6 fold in assay [2]; “approximately 2 fold” in assay [3]; 2.5 fold in the assay on EDL muscles--male mice; 3.5 fold with EDL muscles--female mice (female mice); “similar” in assay [4].
